According to patent publication US11427549B2, “Pyrimidinyloxy benzo-fused compounds as herbicides” (FMC Corporation, priority 2017, dated 2022):

Columns and labels:
[1] = test system: barnyardgrass (Echinochloa crus-galli); assay: Test A preemergence, barnyardgrass; assay type: in vivo; details: Echinochloa crus-galli, pre-emergence, 240 h, 0 to 100 scale (0 no effect, 100 complete control), read-out: Plant response rating, Barnyardgrass; for pest or weed control at 31 g/ha: 31 g ai/ha; for pest or weed control at 125 g/ha: 125 g ai/ha
Text: (§1) Seeds of plant species selected from barnyardgrass (Echinochloa crus-galli), kochia (Kochia scoparia), ragweed (common ragweed, Ambrosia elatior), ryegrass, Italian (Italian ryegrass, Lolium multiflorum), foxtail, giant (giant foxtail, Setaria faberii), foxtail, green (green foxtail, Setaria viridis) and pigweed (Amaranthus retroflexus) were planted into a blend of loam soil and sand and treated preemergence with a directed soil spray using test chemicals formulated in a non-phytotoxic solvent mixture which included a surfactant.
(§2) At the same time, plants selected from these weed species and also wheat (Triticum aestivum), corn (Zea mays), blackgrass (Alopecurus myosuroides), and galium (catchweed bedstraw, Galium aparine) were planted in pots containing the same blend of loam soil and sand and treated with postemergence applications of test chemicals formulated in the same manner. Plants ranged in height from 2 to 10 cm and were in the one- to two-leaf stage for the postemergence treatment. Treated plants and untreated controls were maintained in a greenhouse for approximately 10 days, after which time all treated plants were compared to untreated controls and visually evaluated for injury. […] A dash (-) response means no test result.

kochia (Kochia scoparia) [2] = assay: Test A preemergence, kochia; assay type: in vivo; details: Bassia scoparia, pre-emergence, 240 h, 0 to 100 scale (0 no effect, 100 complete control), read-out: Plant response rating, Kochia; for pest or weed control at 31 g/ha: 31 g ai/ha; for pest or weed control at 125 g/ha: 125 g ai/ha
Text: as §1, §2

[3] = test system: ragweed (common ragweed, Ambrosia elatior); assay: Test A preemergence, ragweed; assay type: in vivo; details: Ambrosia artemisiifolia, pre-emergence, 240 h, 0 to 100 scale (0 no effect, 100 complete control), read-out: Plant response rating, Ragweed
Text: as §1, §2

[4] = test system: ryegrass, Italian (Italian ryegrass, Lolium multiflorum); assay: Test A preemergence, ryegrass, Italian; assay type: in vivo; details: Lolium multiflorum, pre-emergence, 240 h, 0 to 100 scale (0 no effect, 100 complete control), read-out: Plant response rating, Ryegrass, Italian; for pest or weed control at 31 g/ha: 31 g ai/ha; for pest or weed control at 125 g/ha: 125 g ai/ha
Text: as §1, §2

[5] = test system: pigweed (Amaranthus retroflexus); assay: Test A preemergence, pigweed; assay type: in vivo; details: Amaranthus retroflexus, pre-emergence, 240 h, 0 to 100 scale (0 no effect, 100 complete control), read-out: Plant response rating, Pigweed; for pest or weed control at 31 g/ha: 31 g ai/ha; for pest or weed control at 125 g/ha: 125 g ai/ha
Text: as §1, §2

[6] = test system: barnyardgrass (Echinochloa crus-galli); assay: Test A postemergence, barnyardgrass; assay type: in vivo; details: Echinochloa crus-galli, post-emergence, 240 h, 0 to 100 scale (0 no effect, 100 complete control), read-out: Plant response rating, Barnyardgrass; for pest or weed control at 31 g/ha: 31 g ai/ha; for pest or weed control at 125 g/ha: 125 g ai/ha
Text: as §1, §2

kochia (Kochia scoparia) [7] = assay: Test A postemergence, kochia; assay type: in vivo; details: Bassia scoparia, post-emergence, 240 h, 0 to 100 scale (0 no effect, 100 complete control), read-out: Plant response rating, Kochia; for pest or weed control at 31 g/ha: 31 g ai/ha; for pest or weed control at 125 g/ha: 125 g ai/ha
Text: as §1, §2

[8] = test system: ragweed (common ragweed, Ambrosia elatior); assay: Test A postemergence, ragweed; assay type: in vivo; details: Ambrosia artemisiifolia, post-emergence, 240 h, 0 to 100 scale (0 no effect, 100 complete control), read-out: Plant response rating, Ragweed; for pest or weed control at 31 g/ha: 31 g ai/ha; for pest or weed control at 125 g/ha: 125 g ai/ha
Text: as §1, §2

[9] = test system: ryegrass, Italian (Italian ryegrass, Lolium multiflorum); assay: Test A postemergence, ryegrass, Italian; assay type: in vivo; details: Lolium multiflorum, post-emergence, 240 h, 0 to 100 scale (0 no effect, 100 complete control), read-out: Plant response rating, Ryegrass, Italian; for pest or weed control at 31 g/ha: 31 g ai/ha; for pest or weed control at 125 g/ha: 125 g ai/ha
Text: as §1, §2

[10] = test system: pigweed (Amaranthus retroflexus); assay: Test A postemergence, pigweed; assay type: in vivo; details: Amaranthus retroflexus, post-emergence, 240 h, 0 to 100 scale (0 no effect, 100 complete control), read-out: Plant response rating, Pigweed; for pest or weed control at 31 g/ha: 31 g ai/ha; for pest or weed control at 125 g/ha: 125 g ai/ha
Text: as §1, §2

[11] = test system: wheat (Triticum aestivum); assay: Test A postemergence, wheat; assay type: in vivo; details: Triticum aestivum, post-emergence, 240 h, 0 to 100 scale (0 no effect, 100 complete control), read-out: Plant response rating, Wheat; for plant injury at 31 g/ha: 31 g ai/ha; for plant injury at 125 g/ha: 125 g ai/ha
Text: as §1, §2

corn (Zea mays) = assay: Test A postemergence, corn; assay type: in vivo; details: Zea mays, post-emergence, 240 h, 0 to 100 scale (0 no effect, 100 complete control); for Corn plant response rating (crop injury, 0 = no effect, 100 = complete kill) at 31 g/ha: 31 g ai/ha; for Corn plant response rating (crop injury, 0 = no effect, 100 = complete kill) at 125 g/ha: 125 g ai/ha
Text: as §1, §2

[12] = test system: blackgrass (Alopecurus myosuroides); assay: Test A postemergence, blackgrass; assay type: in vivo; details: Alopecurus myosuroides, post-emergence, 240 h, 0 to 100 scale (0 no effect, 100 complete control), read-out: Plant response rating, Blackgrass; for pest or weed control at 31 g/ha: 31 g ai/ha; for pest or weed control at 125 g/ha: 125 g ai/ha
Text: as §1, §2

[13] = test system: galium (catchweed bedstraw, Galium aparine); assay: Test A postemergence, galium; assay type: in vivo; details: Galium, post-emergence, 240 h, 0 to 100 scale (0 no effect, 100 complete control), read-out: Plant response rating, Galium; for pest or weed control at 31 g/ha: 31 g ai/ha; for pest or weed control at 125 g/ha: 125 g ai/ha
Text: as §1, §2

rice (Oryza sativa) = assay: Test B flooded paddy test, rice; details: Oryza sativa, read-out: Plant response rating, Rice (0 to 100 scale, 0 is no effect, 100 is complete control)
[14] = test system: ducksalad (Heteranthera limosa); assay: Test B flooded paddy test, ducksalad; details: Heteranthera limosa, read-out: Plant response rating, Ducksalad (0 to 100 scale, 0 is no effect, 100 is complete control)
[15] = test system: barnyardgrass (Echinochloa crus-galli); assay: Test B flooded paddy test, barnyardgrass; details: Echinochloa crus-galli, read-out: Plant response rating, Barnyardgrass (0 to 100 scale, 0 is no effect, 100 is complete control)

| Structure (SMILES) | pest or weed control at 31 g/ha [1] [%] | pest or weed control at 125 g/ha [1] [%] | pest or weed control at 31 g/ha (kochia (Kochia scoparia) [2]) [%] | pest or weed control at 125 g/ha (kochia (Kochia scoparia) [2]) [%] | pest or weed control at 31 g/ha [4] [%] | pest or weed control at 125 g/ha [4] [%] | pest or weed control at 31 g/ha [5] [%] | pest or weed control at 125 g/ha [5] [%] | pest or weed control at 31 g/ha [6] [%] | pest or weed control at 125 g/ha [6] [%] | pest or weed control at 31 g/ha (kochia (Kochia scoparia) [7]) [%] | pest or weed control at 125 g/ha (kochia (Kochia scoparia) [7]) [%] | pest or weed control at 31 g/ha [8] [%] | pest or weed control at 125 g/ha [8] [%] | pest or weed control at 31 g/ha [9] [%] | pest or weed control at 125 g/ha [9] [%] | pest or weed control at 31 g/ha [10] [%] | pest or weed control at 125 g/ha [10] [%] | plant injury at 31 g/ha [11] [%] | plant injury at 125 g/ha [11] [%] | further results |
| --- | --- | --- | --- | --- | --- | --- | --- | --- | --- | --- | --- | --- | --- | --- | --- | --- | --- | --- | --- | --- | --- |
| O=C1OCc2cccc(Oc3ncc(Cl)cn3)c2C1CCCC(F)(F)F (stereo not drawn) [Compound 26, 5-[(5-Chloro-2-pyrimidinyl)oxy]-1,4-dihydro-4-(4,4,4-trifluorobutyl)-3H-2-benzopyran-3-one] | 0 | 30 | 0 | 20 | 0 | 10 | 20 | 100 | 100 | 100 | 20 | 60 | 0 | 10 | 0 | 0 | 30 | 60 | 0 | 0 | pest or weed control at 31 g/ha ([3]; 31 g ai/ha): 0%; pest or weed control at 125 g/ha ([3]; 125 g ai/ha): 0%; Corn plant response rating (crop injury, 0 = no effect, 100 = complete kill) at 31 g/ha (corn (Zea mays)): 10%; Corn plant response rating (crop injury, 0 = no effect, 100 = complete kill) at 125 g/ha (corn (Zea mays)): 20%; pest or weed control at 31 g/ha [12]: 0%; pest or weed control at 125 g/ha [12]: 0%; pest or weed control at 31 g/ha [13]: 20%; pest or weed control at 125 g/ha [13]: 50% |
| FC(F)(F)CCCC1COc2cccc(Oc3ncc(Cl)cn3)c21 (stereo not drawn) [Compound 33, 5-Chloro-2-[[2,3-dihydro-3-(4,4,4-trifluorobutyl)-4-benzofuranyl]oxy]pyrimidine] | 0 | 50 | 0 | 0 | 0 | 50 | 0 | 10 | 10 | 20 | 30 | 40 | 0 | 10 | 0 | 0 | 20 | 30 | 0 | 0 | Corn plant response rating (crop injury, 0 = no effect, 100 = complete kill) at 31 g/ha (corn (Zea mays)): 0%; Corn plant response rating (crop injury, 0 = no effect, 100 = complete kill) at 125 g/ha (corn (Zea mays)): 0%; pest or weed control at 31 g/ha [12]: 0%; pest or weed control at 125 g/ha [12]: 20%; pest or weed control at 31 g/ha [13]: 50%; pest or weed control at 125 g/ha [13]: 70%; plant injury at 250 g/ha (rice (Oryza sativa)): 0%; pest or weed control at 250 g/ha [14]: 70%; pest or weed control at 250 g/ha [15]: 0% |
